Results taken from PMC12624712 (ACS Infectious Diseases, 2025).
Like-named read-outs stand apart in the source and are kept apart here.

Columns and labels:
[1] = test system: RVFV strain ZH-548; experiment: microbe, parasite or virus in culture; format: cell-based; conditions: for IC50: Rift Valley fever virus
[2] = in vitro; conditions: African green monkey
[3] = test system: VERO E6 cells
[4] = target: RVFV L protein (Rift valley fever virus, UniProt P27316); experiment: cell-based
[5] = Vero C1008, 72 h, read-out: IC50, cytopathic effect reduction assay
[6] = Vero C1008, read-out: IC50: 95% CI, CPE reduction assay

Sequence of RVFV L protein (P27316 whole entry, looked up): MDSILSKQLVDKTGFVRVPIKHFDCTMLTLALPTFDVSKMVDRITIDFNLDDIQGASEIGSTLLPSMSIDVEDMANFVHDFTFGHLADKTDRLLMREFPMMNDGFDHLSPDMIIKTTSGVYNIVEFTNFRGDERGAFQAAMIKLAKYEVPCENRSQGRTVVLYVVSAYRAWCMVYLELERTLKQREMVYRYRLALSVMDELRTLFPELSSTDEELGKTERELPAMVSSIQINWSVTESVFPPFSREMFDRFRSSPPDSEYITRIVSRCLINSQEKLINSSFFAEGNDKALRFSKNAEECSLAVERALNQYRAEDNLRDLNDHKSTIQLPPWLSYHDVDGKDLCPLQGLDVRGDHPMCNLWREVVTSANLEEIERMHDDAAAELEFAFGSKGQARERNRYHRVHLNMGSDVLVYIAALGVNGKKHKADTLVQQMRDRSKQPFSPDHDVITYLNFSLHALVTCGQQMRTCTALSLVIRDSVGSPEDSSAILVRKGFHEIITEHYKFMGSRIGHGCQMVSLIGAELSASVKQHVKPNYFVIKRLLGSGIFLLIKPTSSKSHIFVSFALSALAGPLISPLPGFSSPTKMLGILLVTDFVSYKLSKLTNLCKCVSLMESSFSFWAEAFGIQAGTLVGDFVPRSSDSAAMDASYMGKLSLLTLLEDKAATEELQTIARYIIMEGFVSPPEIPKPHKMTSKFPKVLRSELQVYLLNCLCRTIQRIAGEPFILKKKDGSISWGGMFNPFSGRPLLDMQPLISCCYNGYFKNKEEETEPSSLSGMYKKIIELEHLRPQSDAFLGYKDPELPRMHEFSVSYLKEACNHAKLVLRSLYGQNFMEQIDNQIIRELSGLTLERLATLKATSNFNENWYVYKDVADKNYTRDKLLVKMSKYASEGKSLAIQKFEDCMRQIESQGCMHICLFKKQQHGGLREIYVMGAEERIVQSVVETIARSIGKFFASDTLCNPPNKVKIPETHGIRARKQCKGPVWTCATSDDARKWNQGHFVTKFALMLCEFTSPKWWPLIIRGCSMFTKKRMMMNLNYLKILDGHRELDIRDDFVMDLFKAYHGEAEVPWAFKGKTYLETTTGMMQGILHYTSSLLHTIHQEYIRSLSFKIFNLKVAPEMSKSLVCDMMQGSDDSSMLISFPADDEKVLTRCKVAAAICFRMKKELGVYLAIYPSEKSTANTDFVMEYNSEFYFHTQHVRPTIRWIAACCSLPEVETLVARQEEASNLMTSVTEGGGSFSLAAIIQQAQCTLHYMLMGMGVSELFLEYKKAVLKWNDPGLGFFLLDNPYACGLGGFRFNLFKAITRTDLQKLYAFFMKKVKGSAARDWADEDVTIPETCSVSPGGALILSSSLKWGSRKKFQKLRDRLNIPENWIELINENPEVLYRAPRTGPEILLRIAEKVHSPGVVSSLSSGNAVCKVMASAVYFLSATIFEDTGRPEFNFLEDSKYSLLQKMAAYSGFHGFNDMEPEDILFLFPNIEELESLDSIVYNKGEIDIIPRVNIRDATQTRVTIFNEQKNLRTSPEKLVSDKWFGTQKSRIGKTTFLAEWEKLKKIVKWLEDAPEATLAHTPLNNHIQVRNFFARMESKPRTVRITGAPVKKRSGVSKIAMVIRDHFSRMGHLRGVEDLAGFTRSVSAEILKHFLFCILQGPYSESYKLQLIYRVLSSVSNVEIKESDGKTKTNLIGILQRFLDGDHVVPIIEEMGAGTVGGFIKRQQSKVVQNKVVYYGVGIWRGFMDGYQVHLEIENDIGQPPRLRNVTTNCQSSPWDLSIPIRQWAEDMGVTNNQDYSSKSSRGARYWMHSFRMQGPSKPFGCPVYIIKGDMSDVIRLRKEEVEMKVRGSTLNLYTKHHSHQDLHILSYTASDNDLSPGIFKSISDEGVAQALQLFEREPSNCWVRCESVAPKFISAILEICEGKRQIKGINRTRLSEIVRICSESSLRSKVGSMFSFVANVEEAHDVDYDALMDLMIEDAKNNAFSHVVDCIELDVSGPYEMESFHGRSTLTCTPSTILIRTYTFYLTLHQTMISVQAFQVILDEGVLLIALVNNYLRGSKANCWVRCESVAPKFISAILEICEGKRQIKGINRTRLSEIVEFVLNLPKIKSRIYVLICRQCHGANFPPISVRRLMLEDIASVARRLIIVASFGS

For `CC(C)C(=O)OC[C@H]1O[C@@H](n2ccc(NO)nc2=O)[C@H](O)[C@@H]1O` [Molnupiravir], the IC50 [1, 5] was 27 ± 4 µM and the CC50 [2] was > 100 µM.

In the case of `Nc1ccn([C@@H]2O[C@H](CO)[C@@H](O)C2(F)F)c(=O)n1` [Gemcitabine, 2'-deoxy-2',2'-difluorocytidine], the IC50 [1, 5] is reported as > 100 µM and the CC50 [2] is reported as > 100 µM.

With `Nc1ccn([C@@H]2C=C(CO)[C@@H](O)[C@H]2O)c(=O)n1` [Cyclopentenylcytosine] the IC50 [1, 5] was > 100 µM and the CC50 [2] was > 100 µM.

In the case of `Nc1ccn([C@@H]2CS[C@H](CO)O2)c(=O)n1` [Lamivudine], the IC50 [1, 5] is reported as > 100 µM and the CC50 [2] is reported as > 100 µM.

In the case of 5'-fluoro-2'-deoxycytidine, the CC50 [3] is reported as > 100 µM.

In the case of `O=C(Nc1ccn([C@@H]2O[C@H](CO)[C@@H](O)[C@H]2F)c(=O)n1)c1ccccc1` [N4-benzoyl-2'-fluoro-2'-deoxycytidine], the IC50 [1, 5] is reported as 34 ± 4 µM and the CC50 [2] is reported as > 100 µM.

In the case of `NC(=O)c1ncn([C@@H]2O[C@H](CO)[C@@H](O)[C@H]2O)n1` [Ribavirin], the IC50 [1, 5] is reported as 55 ± 9 µM and the CC50 [2] is reported as > 100 µM.

In the case of `Nc1nc2c(ncn2[C@@H]2O[C@H](CO)[C@@H](O)[C@H]2F)c(=O)[nH]1` [2´-fluoro-2´-deoxyguanosine], the IC50 [1, 5] is reported as 23 ± 3 µM and the CC50 [2] is reported as > 100 µM.

In the case of `CC(C)OC(=O)[C@H](C)N[P@](=O)(CO[C@H](C)Cn1cnc2c(N)ncnc21)Oc1ccccc1` [Tenofovir Alafenamide], the IC50 [1, 5] is reported as > 100 µM and the CC50 [2] is reported as > 100 µM.

For `CC(=O)Nc1ccn([C@@H]2O[C@H](CO)[C@@H](O)[C@H]2F)c(=O)n1` [N4-acetyl-2'-fluoro-2'-deoxycytidine], the IC50 [1, 5] was 20 ± 3 µM and the CC50 [2] was > 100 µM.

For `CCCCCCCC/C=C/CCCCCCCC(=O)OC[C@H]1O[C@@H](n2ccc(N)nc2=O)C(F)(F)[C@@H]1O` [Gemcitabine elaidate], the IC50 [1, 5] was > 100 µM and the CC50 [2] was > 100 µM.

For `Nc1ccn(C[C@@H](CO)OCP(=O)(O)O)c(=O)n1` [Cidofovir], the “Activity against RVFV in cell culture” value [1] was “no effect”, the IC50 [1, 5] was > 100 µM and the CC50 [2] was > 100 µM.

With `Nc1ncnc2c1ncn2[C@@H]1O[C@H](CO)[C@@H](O)[C@H]1F` [2´-fluoro-2´-deoxyadenosine] the IC50 [1, 5] was > 100 µM and the CC50 [2] was > 100 µM.

With `Cc1cn([C@@H]2O[C@H](CO)[C@@H](O)[C@H]2F)c(=O)[nH]c1=O` [2´-fluoro-2´-deoxythymidine] the IC50 [1, 5] was > 100 µM and the CC50 [2] was > 100 µM.

With `Nc1ccn([C@@H]2O[C@H](CO)[C@@H](O)[C@@H]2O)c(=O)n1` [Cytarabine, Cytosine arabinoside] the IC50 [1, 5] was > 100 µM and the CC50 [2] was > 100 µM.

In the case of `Nc1nc(=O)n([C@@H]2CS[C@H](CO)O2)cc1F` [Emtricitabine], the IC50 [1, 5] is reported as > 100 µM and the CC50 [2] is reported as > 100 µM.

Molecule `O=c1nc(NO)ccn1[C@@H]1O[C@H](CO)[C@@H](O)[C@H]1O` [EIDD-1931] has an IC50 [1, 5] of 2 ± 0.3 µM, an IC50 [1, 6] of 1.5 to 2.8 µM and an IC50 [4] of 1.6 ± 0.2 µM. The “Cytotoxicity” value [3] was “nontoxic in selected concentration range” and the CC50 [2] was > 100 µM.

For `COc1c(-c2ccc3cc(NS(C)(=O)=O)ccc3c2)cc(-n2ccc(=O)[nH]c2=O)cc1C(C)(C)C` [Dasabuvir], the “Activity against RVFV in cell culture” value [1] was “lacked activity”, the IC50 [1, 5] was > 100 µM and the CC50 [2] was 26 ± 7 µM.

With `CCC(CC)COC(=O)[C@H](C)N[P@](=O)(OC[C@H]1O[C@@](C#N)(c2ccc3c(N)ncnn23)[C@H](O)[C@@H]1O)Oc1ccccc1` [Remdesivir] the “Activity against RVFV in cell culture” value [1] was “no effect”, the IC50 [1, 5] was > 100 µM and the CC50 [2] was > 100 µM.

Molecule `Nc1ccn([C@@H]2O[C@H](CO)[C@@H](O)[C@H]2F)c(=O)n1` [2'-fluoro-2'-deoxycytidine] has an IC50 [1, 5] of 3 ± 0.3 µM, an IC50 [1, 6] of 2.4 to 3.9 µM and an IC50 [4] of 5.9 ± 1.1 µM. The “Cytotoxicity” value [3] was “nontoxic in selected concentration range” and the CC50 [2] was > 100 µM.

For `O=c1ccn([C@@H]2C=C(CO)[C@@H](O)[C@H]2O)c(=O)[nH]1` [Cyclopentenyluracil], the IC50 [1, 5] was > 100 µM and the CC50 [2] was > 100 µM.

With `CC(C)OC(=O)[C@H](C)N[P@](=O)(OC[C@H]1O[C@@H](n2ccc(=O)[nH]c2=O)[C@](C)(F)[C@@H]1O)Oc1ccccc1` [Sofosbuvir] the “Activity against RVFV in cell culture” value [1] was “lacked activity”, the IC50 [1, 5] was > 100 µM and the CC50 [2] was > 100 µM.

With `COC(=O)OCOc1c2n(ccc1=O)N([C@@H]1c3ccccc3SCc3c1ccc(F)c3F)[C@@H]1COCCN1C2=O` [Baloxavir Marboxil] the IC50 [1, 5] was > 100 µM and the CC50 [2] was > 100 µM.

For `CCCC(CCC)C(=O)Nc1ccn([C@@H]2O[C@H](CO)[C@@H](O)C2(F)F)c(=O)n1` [LY-2334737], the IC50 [1, 5] was > 100 µM and the CC50 [2] was > 100 µM.

With 5'-azacytidine the CC50 [3] was > 100 µM.

In the case of `NC(=O)c1nccnc1O` [T-1105], the IC50 [1, 5] is reported as > 100 µM and the CC50 [2] is reported as > 100 µM.

With `Cc1cn([C@H]2C=C[C@@H](CO)O2)c(=O)[nH]c1=O` [Stavudine] the IC50 [1, 5] was > 100 µM and the CC50 [2] was > 100 µM.

In the case of `O=c1ccn([C@@H]2O[C@H](CO)[C@@H](O)[C@H]2F)c(=O)[nH]1` [2´-fluoro-2´-deoxyuridine], the IC50 [1, 5] is reported as > 100 µM and the CC50 [2] is reported as > 100 µM.

For `NC(=O)c1nc(F)c[nH]c1=O` [Favipiravir], the IC50 [1, 5] was 37 ± 6 µM and the CC50 [2] was > 100 µM.

In the case of `Cc1cn([C@H]2C[C@H](N=[N+]=[N-])[C@@H](CO)O2)c(=O)[nH]c1=O` [Zidovudine], the IC50 [1, 5] is reported as > 100 µM and the CC50 [2] is reported as > 100 µM.

For `C[C@@]1(F)[C@H](O)[C@@H](CO)O[C@H]1n1ccc(N)nc1=O` [PSI-6130, 2'-deoxy-2'-fluoro-2'-C-methylcytidine], the IC50 [1, 5] was > 100 µM and the CC50 [2] was > 100 µM.

With `O=C(O)[C@H]1C2CCC(CC2)[C@@H]1Nc1nc(-c2c[nH]c3ncc(F)cc23)ncc1F` [Pimodivir] the IC50 [1, 5] was > 100 µM and the CC50 [2] was > 100 µM.

With 5'-aza-2'-deoxycytidine [Decitabine] the CC50 [3] was > 100 µM.
